Laboratory results reported in patent US9446039B2, “Aminoheteroaryl compounds as MTH1 inhibitors” (CEMM—FORSCHUNGSZENTRUM FÜR MOLEKULARE MEDIZIN GMBH, priority 2012, dated 2016).

Tests used:
[1] = molecular target: SW480 colon carcinoma cells lysate proteins (Homo sapiens, UniProt P23284); type: binding; details: PreyGene PPIB
[2] = molecular target: T1, SW480 colon carcinoma cells lysate proteins (Homo sapiens, UniProt P50454); type: binding; details: PreyGene SERPINH1
T1 sequence (P50454 19-418): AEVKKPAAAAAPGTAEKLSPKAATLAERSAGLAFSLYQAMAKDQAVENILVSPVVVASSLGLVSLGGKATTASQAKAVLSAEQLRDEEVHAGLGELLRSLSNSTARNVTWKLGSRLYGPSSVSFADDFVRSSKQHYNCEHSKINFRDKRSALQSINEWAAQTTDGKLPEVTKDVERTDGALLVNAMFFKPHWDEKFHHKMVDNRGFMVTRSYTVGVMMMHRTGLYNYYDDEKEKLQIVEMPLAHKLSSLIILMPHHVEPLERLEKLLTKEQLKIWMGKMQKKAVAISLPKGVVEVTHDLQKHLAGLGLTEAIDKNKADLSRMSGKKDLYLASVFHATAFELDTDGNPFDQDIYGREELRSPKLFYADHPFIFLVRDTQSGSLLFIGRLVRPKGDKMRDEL

SW480 colon carcinoma cells lysate proteins (Homo sapiens, UniProt P23284), sequence (P23284 34-216): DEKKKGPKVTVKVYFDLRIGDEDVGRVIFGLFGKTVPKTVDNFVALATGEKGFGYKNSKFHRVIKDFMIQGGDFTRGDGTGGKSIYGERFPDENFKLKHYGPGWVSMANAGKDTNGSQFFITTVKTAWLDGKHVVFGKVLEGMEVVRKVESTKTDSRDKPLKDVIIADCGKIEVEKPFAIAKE

## C[C@H](Oc1cc(-c2cnn(C3CCNCC3)c2)cnc1N)c1c(Cl)ccc(F)c1Cl [(5)-crizotinib]
[1]
  AvgP: 0.381
  SC.Exp. 1-1: 2
  SC.Exp. 1-2: 2
  SC.Exp. 2-1: 0
  SC.Exp. 2-2: 0
  Sum (SC.Exp.): 4
[2]
  AvgP: 0.3843
  SC.Exp. 1-1: 5
  SC.Exp. 1-2: 6
  SC.Exp. 2-1: 0
  SC.Exp. 2-2: 0
  Sum (SC.Exp.): 11
